Consider three compounds from PMC6471559, “Design and Synthesis of a New Soluble Natural β-Carboline Derivative for Preclinical Study by Intravenous Injection” (International Journal of Molecular Sciences, 2019).

Entries after “also recorded” stand apart in the source; their conditions may differ. Where two headings read alike, the source gives them in different places.

For orientation: solubility (thermodynamic) means solubility found after equilibrating the solid with the medium. The IC50 is the point on the concentration scale where inhibition reaches its midpoint.

A short description of data set [1]: Thermodynamic solubility by UV absorbance at 330 nm after 72 h stirring at 37 °C. The settings on record: thermodynamic from solid. The data set is classed as physicochemical. Here is the method:
(§1) Compound 2 solubility and stability measurements were performed at 37 °C at pH 1.1 (0.02 M NaCl, pH 1.1 obtained by HCl addition) to mimic gastric conditions, at pH 7.4 (0.050 M Na2HPO4/NaH2PO4 and 0.02 M NaCl, pH 7.4) and simulated injection vehicle (0.9% NaCl and 0.1% Polysorbate 80). Stability measurements were performed from 0 h to 72 h after complete solubilization. […] At pH 1.1 as well as in the simulated injection vehicle, a higher solubility is observed in comparison with the solubility at physiological pH. Solubility is 1.06 ± 0.08 mg/mL at physiological pH, 1.62 ± 0.13 mg/mL at acidic pH, as well as 1.87 ± 0.07 mg/mL in a simulated vehicle injection (Table 1).
Solubility of compound 2 was evaluated at 37 °C, at pH 1.1 (0.02 M NaCl, pH 1.1 obtained by HCl addition), at physiological pH (buffer 0.050 M Na2HPO4/NaH2PO4 and 0.02 M NaCl, pH 7.4) as well as in a simulated injection vehicle (0.9% NaCl and 0.1% Polysorbate 80 pH 7.4). To this aim, an excess of compound 2 was placed in the […] media in a 24 well plate and stirred (1200 rpm) 72 h at 37 °C after hermetic sealing. After 72 h of stirring, the solutions were filtered (0.2 µm) and diluted 100 times. The solubility was determined by UV absorbance at 330 nm using a calibration curve (five points in a range of concentration between 0.005 and 0.1 mg/mL). All measurements were made in triplicate and adequate dissolutions were performed to stay in Beer-Lambert conditions.

The subject of data set [2] is A549, MDA-MB-231, PANC-1, T98G and Hs683 cell lines. The experiment in a line: MTT antiproliferative assay, 72 h, summary over five cancer cell lines. In kind it is cell-based. The settings on record: Homo sapiens, A549, MDA-MB-231, PANC-1, T98G and Hs683, MTT, read-out: IC50 range over five cancer cell lines. The procedure:
(§2) Antiproliferative activity of compound 2 was evaluated using a colorimetric MTT assay for 72 h. […] Compound 2 activity was studied on different cancer cell lines: two glioma cell lines (T98G, Hs683), one breast cancer cell line (MDA-MB-231), one lung cancer cell line (A549) and one pancreatic cell line (PANC-1). A mean submicromolar antiproliferative activity was observed (Table 2). […] Cytotoxicity of compound 2 against normal cells (epithelial breast cells MCF-10a) vs. cancer cells (MDA-MB-231) was also determined. […] Antiproliferative activity and overall cytotoxicity of compound 2 on cancer and normal cells lines (breast cancer cell line MDA-MB231 and non-tumorigenic breast epithelial cells (MCF-10a) were determined in vitro using colorimetric MTT (Sigma-Aldrich (Schnelldorf, Germany)) solution (0.5 mg/mL in PBS) assay according to a protocol adapted from. Cells were seeded in 96-well culture plate (1200 cells/well 1 day before incubation and were treated for 72 h in culture medium at 37 °C with different concentrations of compound 2 ranging from 1 nM to 10 μM, with semilog concentration increasing of the compound. […] Then, blue formazan was solubilized with DMSO and absorbance at 570 nm, which is directly proportional to the number of metabolic active cells, is determined. […]

The nature of data set [3]: Stability in three media by UV spectra from 0 h to 72 h at 37 °C. The data set is classed as physicochemical. The following applies: pH 1.1, pH 7.4 and simulated injection vehicle (0.9% NaCl, 0.1% Polysorbate 80). The procedure:
as §1
We have evaluated the stability of compound 2 in three different conditions (at pH 1.1, at pH 7.4 and in a simulated injection vehicle) for three days and at 37 °C because it is compatible with physiological temperature and because a higher temperature can result in a better solubilization. We observe that the compound remains stable for at least three days in the three different solutions tested, which allowed determination of its thermodynamic solubility. […]

The test system of data set [4] is MCF-10a human non-tumorigenic breast epithelial cells. The experiment in a line: MTT cytotoxicity on normal cells vs. cancer cells. The data set is classed as cell-based. The following applies: in the IC50 concentration range. The procedure: as §2
Data set [5] deals with MDA-MB-231 human breast cancer cells. The experiment in a line: MTT antiproliferative assay, 72 h. In kind it is cell-based. The procedure:
(§3) Antiproliferative activity of compound 2 was evaluated using a colorimetric MTT assay for 72 h. […] Compound 2 activity was studied on different cancer cell lines: two glioma cell lines (T98G, Hs683), one breast cancer cell line (MDA-MB-231), one lung cancer cell line (A549) and one pancreatic cell line (PANC-1). A mean submicromolar antiproliferative activity was observed (Table 2). […] Cytotoxicity of compound 2 against normal cells (epithelial breast cells MCF-10a) vs. cancer cells (MDA-MB-231) was also determined. […] MDA-MB-231 human breast cancer cells, T98G human brain cancer cells and PANC-1 human epithelioid carcinoma were maintained in culture in 75-cm^2 polystyrene flasks (Corning®, […], Luxembourg) with respectively 15 mL of Dulbecco's modified Eagle's medium (#341966-029 DMEM 1X; ThermoFisher, Gibco®, Geel, Belgium) containing 4.5g/L of glucose, 10% of fetal calf serum (#10270 ThermoFisher, Gibco®, Geel, Belgium) and supplemented with penicillin-streptomycin 10,000 U/mL (#15140 ThermoFisher, Gibco®, Geel, Belgium) incubated under an atmosphere containing 5% CO2. HS683 human glioma and A549 human lung carcinoma were maintained in culture in 75-cm^2 polystyrene flasks (Corning®) with respectively 15 mL of Roswell Park Memorial Institute medium (Gibco® RPMI 1640, Thermofisher, Geel, Belgium) containing 10% of fetal calf serum (#10270 ThermoFisher, Gibco®, Geel, Belgium) and supplemented with penicillin-streptomycin 10,000 U/mL (#15140 ThermoFisher, Gibco®, Geel, Belgium), glutamine (200 mM) and HEPES (25 mM) incubated under an atmosphere containing 5% CO2. MCF-10-a human non-tumorigenic breast epithelial cells were maintained in 75-cm^2 polystyrene flasks (Corning®, […], Luxembourg) with 15 mL of Gibco®, Geel, Belgium) F-12 Nutrient Mixture (Ham) containing 5% of horse serum (Invitrogen®) supplemented with 10 μg/mL of human Insulin (Sigma®, Schnelldorf, Germany), 0.5 μ/mL of Hydrocortisone (Sigma®, Schnelldorf, Germany) and 20 ng/mL of Epidermal Growth Factor (Peprotech®, London, UK) incubated under an atmosphere containing 5% CO2. The cell lines were obtained from the American Type Culture Collection (ATCC, Manassas, VA). Antiproliferative activity and overall cytotoxicity of compound 2 on cancer and normal cells lines (breast cancer cell line MDA-MB231 and non-tumorigenic breast epithelial cells (MCF-10a) were determined in vitro using colorimetric MTT (Sigma-Aldrich (Schnelldorf, Germany)) solution (0.5 mg/mL in PBS) assay according to a protocol adapted from. Cells were seeded in 96-well culture plate (1200 cells/well 1 day before incubation and were treated for 72 h in culture medium at 37 °C with different concentrations of compound 2 ranging from 1 nM to 10 μM, with semilog concentration increasing of the compound. The yellow MTT product was converted to a purple formazan derivative through mitochondrial enzymatic reduction. At the end of the incubation of 4 h, the plate was centrifugated at 1200 rpm for 5 min and the MTT solution was decanted. Then, blue formazan was solubilized with DMSO and absorbance at 570 nm, which is directly proportional to the number of metabolic active cells, is determined. Experiments were carried out in sextuplicates.
(Tetrazolium dyes change colour on reduction, which living cells bring about.)

The test system of a further data set is Hs683 human glioma cells. As to the kind of experiment: MTT antiproliferative assay, 72 h. In kind it is cell-based. Here is the method: as §3
Data set [6] relates to A549 human lung carcinoma cells. The experiment in a line: MTT antiproliferative assay, 72 h. The data set is classed as cell-based. Here is the method: as §3
For data set [7], the system named is PANC-1 human epithelioid carcinoma cells. As to the kind of experiment: MTT antiproliferative assay, 72 h. In kind it is cell-based. Here is the method: as §3
The subject of data set [8] is T98G human brain cancer cells. As to the kind of experiment: MTT antiproliferative assay, 72 h. In kind it is cell-based. The procedure: as §3
The nature of data set [9]: Kinetic solubility by HPLC, Multiscreen Solubility Filter plate. In kind it is physicochemical. An excerpt: From those data, we chose an isopentyl substituent on position 7, which is suitable to decrease neurotoxicity of the targeted compound. We selected a propyl group on position 9 as a short alkyl substituent, seems to be suitable to maintain good antiproliferative properties. […] This high activity can result in low administered doses, thus counter-balancing the low LD50 associated with this N^2 substitution. […] It has been shown that pyridine scaffold in lead compounds can result in higher solubility because of the presence of the heteroatom. Finally, the pyridyl group offers good potential for salification and/or cocrystallization which can also improve pharmacological properties.
The kinetic solubility of compounds 1a and 1b was determined by HPLC method, using a Multiscreen Solubility Filter 96-well plate (Merck®) using a test adapted from. First, the calibration curve was performed from five solutions (3.13 µM 12.5 µM, 50 µM, 200 µM and 500 µM, with a final DMSO concentration of 5%). The kinetic solubility was measured in triplicate at physiological pH in phosphate buffer (0.05 M Na2HPO4; 0.02 M NaCl adjusted at physiological pH using solution NaH2PO4 0.05 M; NaCl 0.02 M) and in acidic condition (0.2 M HCl, 0.03 M NaCl adjusted at pH = 1.1 using HCl 37%). […]

Regarding `CCCn1c2cc(OCCC(C)C)ccc2c2cc[n+](Cc3ccccn3)c(C)c21.[Br-]` [compound 2, 1-methyl-7-(3-methylbutoxy)-9-propyl-2-[(pyridin-2-yl)methyl]-9H-pyrido[3,4-b]indol-2-ium bromide], the thermodynamic solubility at 72 h was 1620 ± 130 µg/mL in data set [1] (0.02 M NaCl solution acidified with HCl, pH 1.1, simulated gastric fluid, pH 1.1 (0.02 M NaCl, HCl), read-out: Mean thermodynamic solubility at 37 °C); 1460 ± 10 µg/mL in data set [1] (0.02 M NaCl solution acidified with HCl, pH 1.1, simulated gastric fluid, pH 1.1 (0.02 M NaCl, HCl), read-out: Thermodynamic solubility at 37 °C replicate 1); 1630 ± 20 µg/mL in [1] (0.02 M NaCl solution acidified with HCl, pH 1.1, simulated gastric fluid, pH 1.1 (0.02 M NaCl, HCl), read-out: Thermodynamic solubility at 37 °C replicate 2); 1770 ± 10 µg/mL in data set [1] (0.02 M NaCl solution acidified with HCl, pH 1.1, simulated gastric fluid, pH 1.1 (0.02 M NaCl, HCl), read-out: Thermodynamic solubility at 37 °C replicate 3); 1060 ± 80 µg/mL in data set [1] (phosphate buffer, pH 7.4, aqueous buffer, pH 7.4 phosphate buffer, read-out: Mean thermodynamic solubility at 37 °C); 980 ± 10 µg/mL in [1] (phosphate buffer, pH 7.4, aqueous buffer, pH 7.4 phosphate buffer, read-out: Thermodynamic solubility at 37 °C replicate 1). The solubility (thermodynamic) at 72 h in data set [1] (phosphate buffer, pH 7.4, aqueous buffer, pH 7.4 phosphate buffer, read-out: Thermodynamic solubility at 37 °C replicate 2) is 990 ± 10 µg/mL; in [1] (phosphate buffer, pH 7.4, aqueous buffer, pH 7.4 phosphate buffer, read-out: Thermodynamic solubility at 37 °C replicate 3), 1150 ± 10 µg/mL; in data set [1] (simulated injection vehicle, pH 7.4, aqueous with cosolvent or surfactant or cyclodextrin, injection vehicle (0.9% NaCl and 0.1% Polysorbate 80), read-out: Mean thermodynamic solubility at 37 °C), 1870 ± 70 µg/mL; in [1] (simulated injection vehicle, pH 7.4, aqueous with cosolvent or surfactant or cyclodextrin, injection vehicle (0.9% NaCl and 0.1% Polysorbate 80), read-out: Thermodynamic solubility at 37 °C replicate 1), 1950 ± 10 µg/mL; in data set [1] (simulated injection vehicle, pH 7.4, aqueous with cosolvent or surfactant or cyclodextrin, injection vehicle (0.9% NaCl and 0.1% Polysorbate 80), read-out: Thermodynamic solubility at 37 °C replicate 2), 1900 ± 40 µg/mL; in data set [1] (simulated injection vehicle, pH 7.4, aqueous with cosolvent or surfactant or cyclodextrin, injection vehicle (0.9% NaCl and 0.1% Polysorbate 80), read-out: Thermodynamic solubility at 37 °C replicate 3) it was 1770 ± 10 µg/mL. Besides, the IC50 is 200 to 2000 nM in data set [2]; 449 nM in [5] (Homo sapiens, MDA-MB-231, MTT, 72 h); 305 nM in the data set on Hs683 human glioma cells; less than 500 nM in the data set with Hs683 human glioma cells (Homo sapiens, Hs 683, 72 h); 261 nM in data set [6] (Homo sapiens, A549, MTT, 72 h); 350 nM in [7] (Homo sapiens, PANC-1, MTT, 72 h). In data set [8] (Homo sapiens, MTT, 72 h), this compound gave an IC50 of 2190 nM. Also, in [3], the “Time for which the compound is stable (no modification of UV spectra)” value is recorded as “at least 72 h”. In addition, the “Activity on normal cells (MCF-10a) vs. cancer cells (MDA-MB-231)” value was “more active on a cancer cell line than on normal cells” in data set [4] and “more active on cancer cells (MDA-MB-231) than on normal cells (MCF-10a)” in [4] (listed as 1-methyl-7-(3-methylbutoxy)-9-propyl-2-[(pyridin-2-yl)methyl]-9H-pyrido[3,4-b]in). Further, the “Cytostatic at IC50” value in [5] (MDA-MB-231, metabolic activity at IC50 compared with T = 0 h) was “cytostatic behavior; also recorded: cytostatic effect”; in [6] (A549, metabolic activity at IC50 compared with T = 0 h), “cytostatic behavior; also recorded: cytostatic effect”; in data set [7] (PANC-1, metabolic activity at IC50 compared with T = 0 h) it was “No”; in data set [8] (metabolic activity at IC50 compared with T = 0 h) it was “No”.

With `CCCn1c2cc(OCCC(C)C)ccc2c2ccnc(C)c21` [1b, 1-methyl-7-(3-methylbutoxy)-9-propyl-9H-pyrido[3,4-b]indole], the “Kinetic solubility at low pH” value in data set [9] (acidic condition pH 1.1, 5% DMSO, preliminary data, values only in Figure 2B) is listed as “good solubility at low pH”.

As to `Cc1nccc2c1[nH]c1cc(OCCC(C)C)ccc12` [1a, 1-methyl-7-(3-methylbutoxy)-9H-pyrido[3,4-b]indole], the “Kinetic solubility at low pH” value in [9] (pH 1.1) was “good solubility at low pH”.
